For 13 molecules, inhibition and Activity results are on record in ChEMBL document CHEMBL2321861, “Multifunctional radical quenchers for the treatment of mitochondrial dysfunction” (ACS Med Chem Lett, 2013).

SMILES strings stand for the structures.

Experiment [1] is described as follows: Inhibition of NADH oxidase (unknown origin) at 1 uM relative to control. Particulars: Homo sapiens.
The nature of experiment [2]: Antioxidant activity assessed as suppression of lipid peroxidation at 5 uM relative to control. The format is functional.
Experiment [3] is described as follows: Antioxidant activity assessed as suppression of lipid peroxidation at 1 uM relative to control. The format is functional.
Experiment [4] in a line: Inhibition of NADH oxidase (unknown origin) at 5 uM relative to control. Particulars: Homo sapiens.

As for `C=Cc1c(C)n(O)c(C)c(CCCCCCCCCCCCCCCC)c1=O`, the inhibition amounted to 20.1% in experiment [1] and 12% in experiment [4]. For the same molecule, the Activity in experiment [2] was determined as 13%; in experiment [3], 7%.

With `CCCCCCCCCCc1c(C)n(O)c(C)c(Br)c1=O`, the Activity in experiment [2] and in experiment [3] was 0% each time.

In the case of `CCCCCCCCCCc1c(C)n(O)c(C)cc1=O`, the Activity in experiment [2] and in experiment [3] was 0% each time.

Take `CCCCCCCc1c(C)n(O)c(C)c(N)c1=O`: the results for the inhibition in experiment [1] and in experiment [4] were 92.9% and 76.7%, respectively. Further, the Activity turned out to be 9.6% in experiment [2] and 14% in experiment [3].

For `CCCCCCCCCCCCCCCCc1c(C)n(O)c(C)c(Br)c1=O`, the Activity in experiment [2] stood at 15%; in experiment [3] it was 7%.

`CCCCCCCc1c(C)n(O)c(C)c(C(C)=O)c1=O`: the inhibition in experiment [1] was found to be 74.5%; in experiment [4], 44.5%. The values for the Activity in experiment [2] and in experiment [3] were 2.2% and 11%, respectively.

As to `CCCCCCCCCCCCCCCCc1c(C)n(O)c(C)cc1=O`, the Activity in experiment [2] is 20%; in experiment [3], 10%.

Turning to `CCCCCCCc1c(C)n(O)c(C)cc1=O`, the Activity in experiment [2] and in experiment [3] was 0% in each case.

For `C=Cc1c(C)n(O)c(C)c(CCCCCCC)c1=O`, the inhibition in experiment [1] was determined as 29.7%; in experiment [4] it was 20.7%. In addition, the Activity in experiment [2] and in experiment [3] was 0% each time.

Take `CCCCCCCc1c(C)n(O)c(C)c(Cl)c1=O`: the Activity in experiment [2] and in experiment [3] was 0% each time.

Take `CCCCCCCCCCc1c(C)n(O)c(C)c(Cl)c1=O`: the Activity in experiment [2] and in experiment [3] was 0% throughout.

As for `CCCCCCCCCCCCCCCCc1c(C)n(O)c(C)c(N)c1=O`, the inhibition in experiment [1] stood at 17.1%; in experiment [4], 12.7%. The Activity in experiment [2] worked out at 94%; in experiment [3] it was 18%.

Turning to `CCCCCCCc1c(C)n(O)c(C)c(Br)c1=O`, the Activity in experiment [2] and in experiment [3] was 0% in each case.
